Laboratory results as given in patent US20230372318A1, “METHODS FOR TREATING A SUBJECT HAVING MULTIPLE SYSTEM ATROPHY” (Theravance Biopharma R&D IP, LLC, priority 2022, published 2023).
“Also recorded” adds a separate entry of the source.

What was measured:
[1] = system: rat native NET; assay: [3H]-NE uptake inhibition, rat cortical synaptosomes; format: biochemical; settings: [3H]-NE vs [3H]-5-HT uptake
From the text: (§1) The in vitro pharmacology of ampreloxetine at human recombinant and rat native monoamine transporters was characterized as described in Smith et al., Inter. J. Neuropsychopharmcol. (2015) 1-11; and Tsuruda et al., J. Pharmacol. Toxicol. Meth. (2010) 61:192-204. See also, e.g., U.S. Pat. Nos. 8,304,432 B2 and 8,304,433 B2. Radioligands were sourced commercially (Perkin Elmer LifeSciences or GE Healthcare Life Sciences).
(§2) Briefly, membranes prepared from HEK293 (Human Embryonic Kidney 293) or CHO-K1 (Chinese Hamster Ovary-K1) cells stably transfected with human recombinant SERT (HEK293-hSERT), NET (HEK293-hNET), or DAT (CHO-K1-hDAT) were incubated for 1 hr at 22° C. in the absence, or presence, of 4-[2-(2,4,6-trifluorophenoxymethyl)phenyl]piperidine and [^3H]-citalopram (1.0 nM) for SERT, [^3H]-nisoxetine (2.0 nM) for NET, and [^3H]-WIN35428 (3.0 nM) for DAT in 50 mM Tris-HCl, 120 mM NaCl, 5 mM KCl, 0.025% BSA, 100 μM ascorbic acid, pH 7.4. Rat cortical membrane preparations were incubated with [^3H]-citalopram (2.0 nM) for SERT or [^3H]-nisoxetine (4.0 nM) for NET for 1 hr at 22° C. […] Binding and uptake assays were terminated by rapid filtration and radioactivity determined by liquid scintillation spectroscopy. […] Selectivity for NET (rounded to one significant figure) was determined as follows: […]

[2] = target: T1, rat native DAT (Rattus norvegicus, UniProt P23977); assay: [3H]-DA uptake inhibition, rat striatal synaptosomes; format: biochemical; settings: mean
T1 construct: human recombinant and rat native monoamine transporters; from tissue; host or cells: rat striatum (synaptosomes)
T1 sequence (P23977 whole entry): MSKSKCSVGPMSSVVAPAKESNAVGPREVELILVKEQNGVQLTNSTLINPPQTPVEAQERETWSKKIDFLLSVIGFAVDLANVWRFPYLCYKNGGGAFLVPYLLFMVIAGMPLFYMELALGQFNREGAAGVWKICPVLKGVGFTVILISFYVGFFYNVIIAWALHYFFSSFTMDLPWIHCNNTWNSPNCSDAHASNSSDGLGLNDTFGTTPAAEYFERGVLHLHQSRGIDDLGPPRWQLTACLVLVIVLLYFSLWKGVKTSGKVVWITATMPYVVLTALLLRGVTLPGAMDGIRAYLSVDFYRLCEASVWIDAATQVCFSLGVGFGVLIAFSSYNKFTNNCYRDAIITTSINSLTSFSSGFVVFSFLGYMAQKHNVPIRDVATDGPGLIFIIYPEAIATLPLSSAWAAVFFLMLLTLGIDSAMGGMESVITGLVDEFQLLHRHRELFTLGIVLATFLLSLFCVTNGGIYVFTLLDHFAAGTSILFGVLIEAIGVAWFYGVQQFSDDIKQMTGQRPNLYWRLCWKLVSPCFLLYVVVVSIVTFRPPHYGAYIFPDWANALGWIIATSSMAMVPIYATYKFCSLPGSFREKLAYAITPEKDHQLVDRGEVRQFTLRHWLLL
From the text: as §1, §2

[3] = target: T2, rat native NET (Rattus norvegicus, UniProt Q63380); assay: Radioligand binding, [3H]-nisoxetine, rat cortical membranes; settings: mean (95% confidence intervals)
T2 construct: human recombinant and rat native monoamine transporters; from tissue; host or cells: rat cerebral cortex (membranes; synaptosomes)
T2 sequence (Q63380 1-617): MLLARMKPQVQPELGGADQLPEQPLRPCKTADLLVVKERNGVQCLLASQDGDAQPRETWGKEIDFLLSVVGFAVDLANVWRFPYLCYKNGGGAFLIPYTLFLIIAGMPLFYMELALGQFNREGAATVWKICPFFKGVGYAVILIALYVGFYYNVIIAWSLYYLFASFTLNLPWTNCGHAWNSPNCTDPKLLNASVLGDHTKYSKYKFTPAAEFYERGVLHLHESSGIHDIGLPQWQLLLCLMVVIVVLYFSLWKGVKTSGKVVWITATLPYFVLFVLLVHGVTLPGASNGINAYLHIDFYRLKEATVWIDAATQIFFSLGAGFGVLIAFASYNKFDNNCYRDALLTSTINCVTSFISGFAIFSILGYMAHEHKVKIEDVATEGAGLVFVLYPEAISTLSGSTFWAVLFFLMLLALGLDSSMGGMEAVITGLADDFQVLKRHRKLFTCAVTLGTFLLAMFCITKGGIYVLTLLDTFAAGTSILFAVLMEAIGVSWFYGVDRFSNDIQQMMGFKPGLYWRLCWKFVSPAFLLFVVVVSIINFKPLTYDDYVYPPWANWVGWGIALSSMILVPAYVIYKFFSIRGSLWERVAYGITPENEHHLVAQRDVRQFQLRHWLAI
From the text: as §1, §2

[4] = target: T3, NET (Rattus norvegicus, UniProt Q63380); assay: Ex vivo transporter occupancy in rat spinal cord (NET)
T3 construct: from tissue; host or cells: lumbar spinal cord of orally dosed male Sprague Dawley rats
T3 sequence (Q63380 1-617): as above
Experimental: (§3) Adult male Sprague Dawley rats (Charles River) were housed under controlled laboratory conditions (temperature at 21±1° C.) on a 12:12 hour light-dark cycle. Animals were given free access to food and water upon arrival to the facility and animals were acclimatized to their holding room for at least 48 hours. Animals were fasted but allowed free access to water for 15-18 hours prior to dosing.
(§4) Rats (n=6/timepoint/dose level) received a single oral dose of 4-[2-(2,4,6-trifluorophenoxymethyl)phenyl]piperidine (0.3, 1, 5, 10, 30, and 60 mg/kg) and were euthanized by decapitation at specified time points (0.5, 2, 4, 6, and 8 hr for 5 mg/kg dose level; 2 hr for 0.3, 1, 10, 30, and 60 mg/kg dose levels) post-administration. Spinal cords were dissected for ex vivo transporter occupancy and PK assessments from the same animals. The spinal cord was harvested by hydraulic extrusion using phosphate-buffered saline, and the lumbar segment dissected and frozen on dry ice. The remaining spinal cord segments were collected and homogenized in water (25% w/w) for PK analysis. All samples were stored at −80° C. until analysis.
(§5) A kinetic radioligand binding assay was used to determine NET and SERT occupancy in rat spinal cord, as described previously in Bourdet et al., J. Pharm. Exp. Ther. (2012) 341:137-145. PK/PD parameters were estimated by a compartmental modeling approach (WinNonlin Version 5.0.1, Pharsight Corporation). One- and two-compartment PK models with first-order absorption and elimination were evaluated. The one-compartment model was selected. The pharmacodynamics model was an effect compartment Emax model linked directly to the central PK compartment (WinNonlin PK Model 3, PD Model 101). Selection of models was based upon best fit in terms of visual inspection, Akaike Information Criteria, and weighted residual sum of squares using the Gauss-Newton minimization method.

[5] = Rat oral pharmacokinetics, one-compartment PK/PD model; format: in vivo
Experimental: as §3, §4, §5

[6] = system: plasma protein; assay: Plasma protein binding, rat; format: in vitro ADME
[7] = human, cited from earlier work
[8] = system: subjects with primary autonomic failures (MSA, PD, or PAF) and symptomatic nOH; assay: Phase 3 4-week clinical study in symptomatic nOH (Example 6)
From the text: The first Phase 3 study was a randomized, double-blind, placebo-controlled, parallel-group, multicenter study designed to evaluate its efficacy, safety, and tolerability in subjects with primary autonomic failures (MSA, PD, or PAF) and symptomatic nOH after 4 weeks of treatment.
This study was a Phase 3, randomized, double-blind, placebo-controlled, parallel-group, multicenter study to evaluate efficacy, safety, and tolerability of ampreloxetine (administered as ampreloxetine hydrochloride) in subjects with primary autonomic failures (MSA, PD, or PAF) and symptomatic nOH after four weeks of treatment. Subjects participated in the study for approximately 10 weeks.
Subjects were randomized in a 1:1 ratio to each of either ampreloxetine or placebo group stratified by the subject's disease type (MSA, PD, or PAF).
Subjects were randomized in a 1:1 ratio to receive either ampreloxetine (test product) or placebo (reference product) once daily through the end of the treatment period.
Subjects randomized to receive ampreloxetine began taking study medication on Day 2 in the morning at a dose of 10 mg and continued to take this dose once daily through the end of the treatment period.
The study consisted of three periods: (i) 4-week screening, (ii) 4-week randomized treatment, and (iii) 2-week follow up.
Following randomization and completion of study assessments, the subject received a single 10-mg dose of ampreloxetine (or matching placebo) once daily (QD) for the remaining double-blind treatment period.
The efficacy assessments for this study included: OHQ; PGI-C; and incidence of falls. The exploratory assessments included: Orthostatic standing test; PK and pharmacodynamics; Non-Motor Symptom Scale (NMSS); EQ-5D-5L; Hospital Anxiety and Depression Scale (HADS); and Burden Scale for Family Caregivers-short version (BSFC-s).
The primary study endpoint was the change from baseline in OHSA #1 (dizziness, lightheadedness, feeling faint, or feeling like blacking out) at Week 4.
The primary efficacy evaluation was the change from baseline of OHSA #1 at Week 4. Baseline was defined as Day 1 pre-dose measurement. A mixed model for repeated measures (MMRM) was fitted to compare treatments. The model included fixed effect class terms of treatment, baseline disease type (MSA, PD, PAF), week, and continuous covariate of baseline OHSA #1 score, a random subject effect, with an unstructured covariance structure using the FAS.

[9] = MSA subjects, Week 4, 10 mg, N 33

Fc1cc(F)c(OCc2ccccc2C2CCNCC2)c(F)c1 [Ampreloxetine, 4-[2-(2,4,6-trifluorophenoxymethyl)phenyl]piperidine]
Apparent functional selectivity for NET over SERT [1]: 10 fold
Neurotransmitter Uptake Inhibition: pIC50, DAT [2]: 6.9
Transporter Binding: pKi, NET [3]: 8.7 (8.5, 8.9)
EC50 ([4]; projected from rat EC50 accounting for species differences in plasma protein binding): 17.1 nM
EC50, plasma concentration associated with 50% NET occupancy ([4]; rat spinal cord, oral dose): 0.0117 µg/mL
Emax, maximal NET occupancy in spinal cord ([4]; rat, single oral dose, effect compartment PK/PD model): 92.0 % occupancy
keo, first-order equilibration rate constant, NET ([4]; rat, central PK compartment to effect compartment): 1.78 h⁻¹
V/F, volume of the central compartment divided by oral bioavailability [5]: 54.8 L/kg
k01, first-order absorption rate constant [5]: 0.777 h⁻¹
k10, elimination rate constant from the central compartment [5]: 0.319 h⁻¹
Plasma protein binding [6]: 90.2%
Dose proportionality of Cmax and AUC ([7]; administered doses): linear with near dose proportional exposure
Time to steady state ([7]; once daily dosing): ≤ 6 days
Deaths ([8]; 10 mg once daily, 4 weeks): no deaths were reported
Supine hypertension ([8]; 10 mg once daily, 4 weeks): no signal for supine hypertension
Serious adverse events, number of subjects ([8]; 10 mg once daily, 4 weeks, none considered related to study drug): four
Anxiety Total Score, Change from Baseline, LS Mean Difference ([8]; MSA subjects, Week 4, 10 mg vs placebo, P-value 0.136): −1.09
Anxiety Total Score, Change from Baseline, LS Mean [8, 9]: −0.75
Anxiety Total Score, Change from Baseline, Mean [8, 9]: −0.67
Anxiety Total Score, Change from Baseline, Median [8, 9]: −1.00
Primary endpoint: change from baseline of OHSA #1 score vs placebo ([8]; Week 4, 10 mg once daily, MSA, PD or PAF): did not meet its primary endpoint; also recorded: did not meet the primary endpoint
